Measurements: US10294202B2, “Pyrrolidinones as herbicides” (FMC Corporation, priority 2013, dated 2019)

Experiments:
waterhemp = experiment: Test C pre-/postemergence herbicide test; assay type: in vivo, Amaranthus rudis; details: Preemergence; for Plant response rating (scale of 0 to 100), Waterhemp: 250 g ai/ha
Source text: (§1) Seeds of plant species selected from blackgrass (Alopecurus myosuroides), ryegrass, Italian (Italian ryegrass, Lolium multiflorum), wheat (winter wheat, Triticum aestivum), galium (catchweed bedstraw, Galium aparine), corn (Zea mays), crabgrass, large (large crabgrass, Digitaria sanguinalis), foxtail, giant (giant foxtail, Setaria faberii), johnsongrass (Sorghum halepense), lambsquarters (Chenopodium album), morningglory (Ipomoea coccinea), nutsedge, yellow (yellow nutsedge, Cyperus esculentus), pigweed (Amaranthus retroflexus), ragweed (common ragweed, Ambrosia elatior), soybean (Glycine max), barnyardgrass (Echinochloa crus-galli), oilseed rape (Brassica napus), waterhemp (common waterhemp, Amaranthus rudis), kochia (Kochia scoparia), oat, wild (wild oat, Avena fatua), surinam grass (Brachiaria decumbens), foxtail, green (green foxtail, Setaria viridis), goosegrass (Eleusine indica), bromegrass, downy (downy bromegrass, Bromus tectorum), nightshade (eastern black nightshade, Solanum ptycanthum), cocklebur (common cocklebur, Xanthium strumarium), cupgrass, woolly (woolly cupgrass, Eriochloa villosa), bermudagrass (Cynodon dactylon), sunflower, (common oilseed sunflower, Helianthus annuus), Russian thistle (Salsola kali) and velvetleaf (Abutilon theophrasti) were planted into a blend of loam soil and sand and treated preemergence with test chemicals formulated in a non-phytotoxic solvent mixture which included a surfactant. At the same time, plants selected from these crop and weed species and also barley (winter barley, Hordeum vulgare), […]), chickweed (common chickweed, Stellaria media), deadnettle (henbit deadnettle, Lamium amplexicaule), and canarygrass (littleseed canarygrass, Phalaris minor) were planted in pots containing Redi-Earth® planting medium (Scotts Company, 14111 Scottslawn Road, Marysville, Ohio 43041) comprising spaghnum peat moss, vermiculite, wetting agent and starter nutrients and treated with postemergence applications of test chemicals formulated in the same manner. Plants ranged in height from 2 to 18 cm (1- to 4-leaf stage) for postemergence treatments. Treated plants and controls were maintained in a greenhouse for 13 to 15 days, after which time all species were compared to controls and visually evaluated. Plant response ratings, summarized in Table C, are based on a scale of 0 to 100 where 0 is no effect and 100 is complete control. A dash (-) response means no test result.

barnyardgrass [1] = experiment: Test B flooded paddy test; assay type: in vivo, Echinochloa crus-galli; details: 250 g ai/ha, Flood; scale of 0 to 100 where 0 is no effect and 100 is complete control
Procedure, shortened: (§2)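 First, plants reach the 2-leaf stage; next, pots are flooded to 3 cm and compound is delivered into the water; finally, after 13 to 15 greenhouse days at constant depth, injury is graded visually from 0 to 100 against controls.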

lambsquarters = experiment: Test C pre-/postemergence herbicide test; assay type: in vivo, Chenopodium album; details: Preemergence; for Plant response rating (scale of 0 to 100), Lambsquarters: 250 g ai/ha
Source text: as §1

sedge, umbrella = experiment: Test B flooded paddy test; assay type: in vivo, Cyperus difformis; details: 250 g ai/ha, Flood; scale of 0 to 100 where 0 is no effect and 100 is complete control
Procedure, shortened: as §2

galium = experiment: Test C pre-/postemergence herbicide test; assay type: in vivo, Galium aparine; details: Preemergence; for Plant response rating (scale of 0 to 100), Galium: 250 g ai/ha
Source text: as §1

pigweed = experiment: Test C pre-/postemergence herbicide test; assay type: in vivo, Amaranthus retroflexus; details: Preemergence; for Plant response rating (scale of 0 to 100), Pigweed: 250 g ai/ha
Source text: as §1

barnyardgrass [2] = experiment: Test C pre-/postemergence herbicide test; assay type: in vivo, Echinochloa crus-galli; details: Preemergence; for Barnyardgrass plant response rating: 31 g ai/ha, scale 0 to 100, 0 is no effect and 100 is complete control; for Plant response rating (scale of 0 to 100; 0 is no effect, 100 is complete control), Barnyardgrass: 250 g ai/ha
Source text: as §1

soybean = experiment: Test C pre-/postemergence herbicide test; assay type: in vivo, Glycine max; details: Preemergence; for Plant response rating (scale of 0 to 100), Soybean: 250 g ai/ha
Source text: as §1

corn = experiment: Test C pre-/postemergence herbicide test; assay type: in vivo, Zea mays; details: Preemergence; for Plant response rating (scale of 0 to 100), Corn: 250 g ai/ha
Source text: as §1

wheat (winter wheat) = experiment: Test C pre-/postemergence herbicide test; assay type: in vivo, Triticum aestivum; details: Preemergence; for Plant response rating (scale of 0 to 100), Wheat: 250 g ai/ha
Source text: as §1

morningglory = experiment: Test C pre-/postemergence herbicide test; assay type: in vivo, Ipomoea coccinea; details: Preemergence; for Plant response rating (scale of 0 to 100), Morningglory: 250 g ai/ha
Source text: as §1

ducksalad = experiment: Test B flooded paddy test; assay type: in vivo, Heteranthera limosa; details: 250 g ai/ha, Flood; scale of 0 to 100 where 0 is no effect and 100 is complete control
Procedure, shortened: as §2

ryegrass, Italian = experiment: Test C pre-/postemergence herbicide test; assay type: in vivo, Lolium multiflorum; details: Preemergence; for Plant response rating (scale of 0 to 100), Ryegrass, Italian: 250 g ai/ha
Source text: as §1

ragweed = experiment: Test C pre-/postemergence herbicide test; assay type: in vivo, Ambrosia elatior; details: Preemergence
Source text: as §1

[3] = 31 g ai/ha, scale 0 to 100, 0 is no effect and 100 is complete control
[4] = 125 g ai/ha, scale 0 to 100 (0 no effect, 100 complete control)
[5] = 62 g ai/ha, scale 0 to 100 (0 no effect, 100 complete control)

SMILES: O=C1NCC(c2ccc(F)c(C(F)(F)F)c2)C1C(=O)Nc1ccccc1C(F)(F)F (racemic) [Compound 78]
- Waterhemp plant response rating (waterhemp; [3]): 50
- Plant response rating, Waterhemp (waterhemp; 62 g ai/ha, scale 0 to 100): 75
- Plant response rating, Waterhemp (waterhemp; [4]): 85
- Plant response rating (scale of 0 to 100), Waterhemp (waterhemp): 85
- Plant response rating, Barnyardgrass (barnyardgrass [1]): 0
- Plant response rating, Lambsquarters (lambsquarters; 62 g ai/ha, scale 0 to 100): 40
- Plant response rating, Lambsquarters (lambsquarters; [4]): 85
- Plant response rating (scale of 0 to 100), Lambsquarters (lambsquarters): 85
- Plant response rating, Sedge, Umbrella (sedge, umbrella): 0
- Galium plant response rating (galium; [3]): 50
- Plant response rating, Galium (galium; 62 g ai/ha, scale 0 to 100): 50
- Plant response rating, Galium (galium; [4]): 60
- Plant response rating (scale of 0 to 100), Galium (galium): 85
- Pigweed plant response rating (pigweed; [3]): 0
- Plant response rating, Pigweed (pigweed; 62 g ai/ha, scale 0 to 100): 40
- Plant response rating, Pigweed (pigweed; [4]): 40
- Plant response rating (scale of 0 to 100), Pigweed (pigweed): 40
- Barnyardgrass plant response rating (barnyardgrass [2]): 60
- Plant response rating, Barnyardgrass (barnyardgrass [2]; 62 g ai/ha, scale 0 to 100): 75
- Plant response rating, Barnyardgrass (barnyardgrass [2]; [4]): 85
- Plant response rating (scale of 0 to 100; 0 is no effect, 100 is complete control), Barnyardgrass (barnyardgrass [2]): 95
- Soybean plant response rating (soybean; [3]): 0
- Plant response rating, Soybean (soybean; 62 g ai/ha, scale 0 to 100): 0
- Plant response rating, Soybean (soybean; [4]): 0
- Plant response rating (scale of 0 to 100), Soybean (soybean): 0
- Corn plant response rating (corn; [3]): 0
- Plant response rating, Corn (corn; 62 g ai/ha, scale 0 to 100): 0
- Plant response rating, Corn (corn; [4]): 40
- Plant response rating (scale of 0 to 100), Corn (corn): 60
- Wheat plant response rating (wheat (winter wheat); [3]): 10
- Plant response rating, Wheat (wheat (winter wheat); 62 g ai/ha, scale 0 to 100): 30
- Plant response rating, Wheat (wheat (winter wheat); [4]): 60
- Plant response rating (scale of 0 to 100), Wheat (wheat (winter wheat)): 90
- Morningglory plant response rating (morningglory; [3]): 0
- Plant response rating, Morningglory (morningglory; 62 g ai/ha, scale 0 to 100): 0
- Plant response rating, Morningglory (morningglory; [4]): 0
- Plant response rating (scale of 0 to 100), Morningglory (morningglory): 0
- Plant response rating, Ducksalad (ducksalad): 85
- Ryegrass, Italian plant response rating (ryegrass, Italian; [3]): 0
- Plant response rating, Ryegrass, Italian (ryegrass, Italian; 62 g ai/ha, scale 0 to 100): 40
- Plant response rating, Ryegrass, Italian (ryegrass, Italian; [4]): 40
- Plant response rating (scale of 0 to 100), Ryegrass, Italian (ryegrass, Italian): 45

SMILES: O=C1NCC(c2cccc(C(F)(F)F)c2)C1C(=O)Nc1ccccc1Cl (racemic) [Compound 189]
- Waterhemp plant response rating (waterhemp; [3]): 0
- Waterhemp plant response rating (waterhemp; [5]): 5
- Plant response rating, Waterhemp (waterhemp; [4]): 0
- Plant response rating, Waterhemp (waterhemp; 16 g ai/ha, scale 0 to 100): 0
- Lambsquarters plant response rating (lambsquarters; [3]): 0
- Lambsquarters plant response rating (lambsquarters; [5]): 0
- Plant response rating, Lambsquarters (lambsquarters; [4]): 5
- Plant response rating, Lambsquarters (lambsquarters; 16 g ai/ha, scale 0 to 100): 0
- Galium plant response rating (galium; [3]): 0
- Galium plant response rating (galium; [5]): 0
- Plant response rating, Galium (galium; [4]): 80
- Plant response rating, Galium (galium; 16 g ai/ha, scale 0 to 100): 0
- Pigweed plant response rating (pigweed; [3]): 0
- Pigweed plant response rating (pigweed; [5]): 0
- Plant response rating, Pigweed (pigweed; [4]): 0
- Plant response rating, Pigweed (pigweed; 16 g ai/ha, scale 0 to 100): 0
- Barnyardgrass plant response rating (barnyardgrass [2]): 85
- Plant response rating, Barnyardgrass (barnyardgrass [2]; 62 g ai/ha, scale 0 to 100): 90
- Plant response rating, Barnyardgrass (barnyardgrass [2]; [4]): 90
- Plant response rating, Barnyardgrass (barnyardgrass [2]; 16 g ai/ha, scale 0 to 100): 45
- Soybean plant response rating (soybean; [3]): 5
- Soybean plant response rating (soybean; [5]): 10
- Plant response rating, Soybean (soybean; [4]): 0
- Plant response rating, Soybean (soybean; 16 g ai/ha, scale 0 to 100): 0
- Corn plant response rating (corn; [3]): 0
- Corn plant response rating (corn; [5]): 0
- Plant response rating, Corn (corn; [4]): 40
- Plant response rating, Corn (corn; 16 g ai/ha, scale 0 to 100): 0
- Wheat plant response rating (wheat (winter wheat); [3]): 0
- Wheat plant response rating (wheat (winter wheat); [5]): 0
- Plant response rating, Wheat (wheat (winter wheat); [4]): 0
- Plant response rating, Wheat (wheat (winter wheat); 16 g ai/ha, scale 0 to 100): 0
- Morningglory plant response rating (morningglory; [3]): 0
- Morningglory plant response rating (morningglory; [5]): 0
- Plant response rating, Morningglory (morningglory; [4]): 0
- Plant response rating, Morningglory (morningglory; 16 g ai/ha, scale 0 to 100): 0
- Ragweed plant response rating (ragweed; [3]): 0
- Ragweed plant response rating (ragweed; [5]): 0
- Plant response rating, Ragweed (ragweed; [4]): 0
- Plant response rating, Ragweed (ragweed; 16 g ai/ha, scale 0 to 100): 0
- Ryegrass, Italian plant response rating (ryegrass, Italian; [3]): 0
- Ryegrass, Italian plant response rating (ryegrass, Italian; [5]): 30
- Plant response rating, Ryegrass, Italian (ryegrass, Italian; [4]): 45
- Plant response rating, Ryegrass, Italian (ryegrass, Italian; 16 g ai/ha, scale 0 to 100): 0

SMILES: O=C1NCC(c2cccc(C(F)F)c2)C1C(=O)Nc1cccc(F)c1F (racemic) [Compound 211]
- Waterhemp plant response rating (waterhemp; [3]): 85
- Waterhemp plant response rating (waterhemp; [5]): 75
- Plant response rating, Waterhemp (waterhemp; [4]): 100
- Plant response rating (scale of 0 to 100), Waterhemp (waterhemp): 90
- Lambsquarters plant response rating (lambsquarters; [3]): 100
- Lambsquarters plant response rating (lambsquarters; [5]): 85
- Plant response rating, Lambsquarters (lambsquarters; [4]): 100
- Plant response rating (scale of 0 to 100), Lambsquarters (lambsquarters): 100
- Galium plant response rating (galium; [5]): 5
- Plant response rating, Galium (galium; [4]): 85
- Plant response rating (scale of 0 to 100), Galium (galium): 100
- Pigweed plant response rating (pigweed; [5]): 0
- Plant response rating, Pigweed (pigweed; [4]): 0
- Plant response rating (scale of 0 to 100), Pigweed (pigweed): 70
- Barnyardgrass plant response rating (barnyardgrass [2]): 30
- Plant response rating, Barnyardgrass (barnyardgrass [2]; 62 g ai/ha, scale 0 to 100): 65
- Plant response rating, Barnyardgrass (barnyardgrass [2]; [4]): 85
- Plant response rating (scale of 0 to 100; 0 is no effect, 100 is complete control), Barnyardgrass (barnyardgrass [2]): 90
- Soybean plant response rating (soybean; [3]): 0
- Soybean plant response rating (soybean; [5]): 0
- Plant response rating, Soybean (soybean; [4]): 5
- Plant response rating (scale of 0 to 100), Soybean (soybean): 0
- Corn plant response rating (corn; [3]): 0
- Corn plant response rating (corn; [5]): 25
- Plant response rating, Corn (corn; [4]): 0
- Plant response rating (scale of 0 to 100), Corn (corn): 80
- Wheat plant response rating (wheat (winter wheat); [3]): 0
- Wheat plant response rating (wheat (winter wheat); [5]): 0
- Plant response rating, Wheat (wheat (winter wheat); [4]): 30
- Plant response rating (scale of 0 to 100), Wheat (wheat (winter wheat)): 45
- Morningglory plant response rating (morningglory; [3]): 0
- Morningglory plant response rating (morningglory; [5]): 0
- Plant response rating, Morningglory (morningglory; [4]): 0
- Plant response rating (scale of 0 to 100), Morningglory (morningglory): 0
- Ragweed plant response rating (ragweed; [3]): 0
- Ragweed plant response rating (ragweed; [5]): 10
- Plant response rating, Ragweed (ragweed; [4]): 85
- Plant response rating (scale of 0 to 100), Ragweed (ragweed; 250 g ai/ha): 100
- Ryegrass, Italian plant response rating (ryegrass, Italian; [3]): 0
- Ryegrass, Italian plant response rating (ryegrass, Italian; [5]): 35
- Plant response rating, Ryegrass, Italian (ryegrass, Italian; [4]): 40
- Plant response rating (scale of 0 to 100), Ryegrass, Italian (ryegrass, Italian): 50
